Experimental data from article PMC3388044, “Probing of Exosites Leads to Novel Inhibitor Scaffolds of HCV NS3/4A Proteinase” (PLoS ONE, 2012).

What follows are compounds tested on Huh7 ET cells (assay: not given). Conditions: read-out: HCV replicon CC50, concentration reducing cell viability by 50%, 72 h.
Experimental: Both cell toxicity and HCV replicon inhibition assays were performed in triplicate in wells of a 96-well flat-bottom, white-wall plates (E&K Scientific, Santa Clara, CA) by the Drug Development Division, Southern Research Institute (SRI; Birmingham, AL). […] Prior to the assays, sub-confluent Huh7 ET cultures were seeded in wells of a 96-well plate. Following a 24 h incubation at 37°C in a 5% CO2 incubator, increasing concentrations of the compounds were added to the wells and incubation was continued for an additional 72 h. […] Human interferon α2b was used as a control. The cellular replicon-derived luciferase activity was measured using the Steady-Glo Luciferase Assay System (Promega, Fitchburg, WI) and a fluorescence spectrophotometer. Cytotoxicity of compounds was measured using the CytoTox-ONE Homogeneous Membrane Integrity Assay (Promega). The IC50 and IC90 values of the compounds (compound concentrations inhibiting the replicon by 50% and 90%, respectively) as well as CC50 and CC90 (compound concentration decreasing cell viability by 50% and 90%, respectively) were calculated using GraphPad Prism.

Row | Structure (SMILES) | CC50 [µM]
1 | Clc1ccc(OCc2nn3c(CCc4nnc5sc(COc6ccc(Cl)cc6)nn45)nnc3s2)cc1 [Compound 2] | 9.99
2 | S=c1[nH]nc(Nc2nc(SCc3ccccc3)nc3n[nH]c(Cc4nn[nH]n4)c23)s1 [Compound 6] | > 100
3 | S=c1[nH]n2c(COc3cc(Cl)c(OCc4nnc5sc(=S)[nH]n45)cc3Cl)nnc2s1 [Compound 7] | 86.8
4 | O=C(Nc1ccccc1)c1cc(S(=O)(=O)Nc2nc3ncccc3[nH]2)c(SSc2cc(Cl)c(C(=O)Nc3ccccc3)cc2S(=O)(=O)Nc2nc3ncccc3[nH]2)cc1Cl [Compound 1] | > 100

Same assay, conditions: read-out: HCV replicon CC90, concentration reducing cell viability by 90%, 72 h

Row | Structure (SMILES) | CC90 [µM]
5 | Clc1ccc(OCc2nn3c(CCc4nnc5sc(COc6ccc(Cl)cc6)nn45)nnc3s2)cc1 [Compound 2] | 22.1
6 | S=c1[nH]nc(Nc2nc(SCc3ccccc3)nc3n[nH]c(Cc4nn[nH]n4)c23)s1 [Compound 6] | > 100
7 | S=c1[nH]n2c(COc3cc(Cl)c(OCc4nnc5sc(=S)[nH]n45)cc3Cl)nnc2s1 [Compound 7] | 96.3
8 | O=C(Nc1ccccc1)c1cc(S(=O)(=O)Nc2nc3ncccc3[nH]2)c(SSc2cc(Cl)c(C(=O)Nc3ccccc3)cc2S(=O)(=O)Nc2nc3ncccc3[nH]2)cc1Cl [Compound 1] | > 100

What follows are compounds tested on NS3/4A A156T (assay: not given). Conditions: fold change in IC50 for the mutant compared to WT.
Type: biochemical, HCV genotype 1b, strain HC-J4
Text: (§1) Reagents were purchased from Sigma unless indicated otherwise. The FRET substrate Ac-DE-D(Edans)-EE-Abu-ψ-[COO]-AS-K(Dabsyl)-NH2, purified recombinant wild-type NS3/4A from HCV genotype 1b, strain HC-J4, and the mutants with the V36M, R155K, A156T, D168A and V170A resistance mutations were from AnaSpec (Fremont, CA). The NS3/4A construct represented the individual NS3 proteinase domain N-terminally fused with an NS4A co-factor and tagged with a 6xHis tag. […] Pyroglutamic acid-Arg-Thr-Lys-Arg-7-amino-4-methylcoumarin was from Peptides International (Louisville, KY). West Nile virus NS2B-NS3 proteinase (strain NY99) was expressed, purified and refolded to restore its functional activity as described earlier. The pET15b-Den2-CF40-Gly-NS3pro 185 plasmid encoding the Dengue virus type 2 NS2B-NS3 protease was a kind gift of Dr. Subhash Vasudevan (Program in Emerging Infectious Diseases, DUKE-NUS Graduate Medical School, Singapore). DV NS2B-NS3 proteinase was expressed purified and refolded to restore its functional activity as described previously, [70]. The expression of the soluble C-terminally truncated human furin construct in Sf9 insect cells (an ovarian cell line from fall armyworm Spodoptera frugiperda; Invitrogen, Carlsbad, CA) infected with the recombinant baculovirus and purification of soluble furin from the medium were described earlier. Original human hepatocarcinoma Huh7 cells were obtained from ATCC (Manassas, VA).
(§2) The NS3/4A activity assay was performed at 37°C in triplicate in wells of a 96-well plate in 0.2 ml 50 mM HEPES, pH 7.5, containing 100 mM NaCl, 10 mM DTT, 20% glycerol, the Ac-DE-D(Edans)-EE-Abu-ψ-[COO]-AS-K(Dabsyl)-NH2 substrate (10 µM) and the NS3/4A enzyme (10 nM). Reaction velocity was monitored continuously at λex = 355 nm and λem = 500 nm for 10 min using a Spectramax Gemini EM fluorescence spectrophotometer (Molecular Devices, Sunnyvale, CA) and the initial rate of reaction v was recorded for each reaction. […] Compound stock solutions (10 mM) were made in 100% DMSO. Stocks were then diluted using the assay buffer. As a result, the final DMSO concentration was always below 1% in the assay reactions.
(§3) To measure the inhibitory potency of the compounds, their increasing concentrations were pre-incubated with the individual proteinases in the corresponding buffer for 30 min at ambient temperature. At least, 7–9 different concentrations were used for each inhibitor. The residual activity of the enzymes was then measured as above. The IC50 values of the inhibitory compounds were calculated by determining the concentrations of the compounds needed to inhibit 50% of the enzyme activity against the peptide substrate. GraphPad Prism was used as fitting software.

Row | Structure (SMILES) | NS3/4A A156T FC
9 | Clc1ccc(OCc2nn3c(CCc4nnc5sc(COc6ccc(Cl)cc6)nn45)nnc3s2)cc1 [Compound 2] | 57.57
10 | S=c1[nH]nc(Nc2nc(SCc3ccccc3)nc3n[nH]c(Cc4nn[nH]n4)c23)s1 [Compound 6] | 3.24
11 | S=c1[nH]n2c(COc3cc(Cl)c(OCc4nnc5sc(=S)[nH]n45)cc3Cl)nnc2s1 [Compound 7] | 0.9
12 | O=C(Nc1ccccc1)c1cc(S(=O)(=O)Nc2nc3ncccc3[nH]2)c(SSc2cc(Cl)c(C(=O)Nc3ccccc3)cc2S(=O)(=O)Nc2nc3ncccc3[nH]2)cc1Cl [Compound 1] | 3.93

What follows are compounds tested against T1, NS3/4A D168A (Hepatitis C virus genotype 1b, UniProt O92972, D1194A) (assay: not given). Conditions: recombinant D168A mutant, FRET peptide substrate.
T1 construct: The NS3/4A construct represented the individual NS3 proteinase domain N-terminally fused with an NS4A co-factor; 6xHis; purchased AnaSpec (Fremont, CA)
Type: biochemical, HCV genotype 1b, strain HC-J4
Text: as §1, §2, §3

Row | Structure (SMILES) | IC50 [µM]
13 | Clc1ccc(OCc2nn3c(CCc4nnc5sc(COc6ccc(Cl)cc6)nn45)nnc3s2)cc1 [Compound 2] | 4.45
14 | S=c1[nH]nc(Nc2nc(SCc3ccccc3)nc3n[nH]c(Cc4nn[nH]n4)c23)s1 [Compound 6] | 1.21
15 | S=c1[nH]n2c(COc3cc(Cl)c(OCc4nnc5sc(=S)[nH]n45)cc3Cl)nnc2s1 [Compound 7] | 1.28
16 | O=C(Nc1ccccc1)c1cc(S(=O)(=O)Nc2nc3ncccc3[nH]2)c(SSc2cc(Cl)c(C(=O)Nc3ccccc3)cc2S(=O)(=O)Nc2nc3ncccc3[nH]2)cc1Cl [Compound 1] | 0.25

Each compound was assayed against T2, NS3/4A R155K (Hepatitis C virus genotype 1b, UniProt O92972, R1181K) (assay: not given). Conditions: recombinant R155K mutant, FRET peptide substrate.
T2 construct: The NS3/4A construct represented the individual NS3 proteinase domain N-terminally fused with an NS4A co-factor; 6xHis; purchased AnaSpec (Fremont, CA)
Type: biochemical, HCV genotype 1b, strain HC-J4
Text: as §1, §2, §3

Row | Structure (SMILES) | IC50 [µM]
17 | Clc1ccc(OCc2nn3c(CCc4nnc5sc(COc6ccc(Cl)cc6)nn45)nnc3s2)cc1 [Compound 2] | 5.84
18 | S=c1[nH]nc(Nc2nc(SCc3ccccc3)nc3n[nH]c(Cc4nn[nH]n4)c23)s1 [Compound 6] | 2.29
19 | S=c1[nH]n2c(COc3cc(Cl)c(OCc4nnc5sc(=S)[nH]n45)cc3Cl)nnc2s1 [Compound 7] | 2.03
20 | O=C(Nc1ccccc1)c1cc(S(=O)(=O)Nc2nc3ncccc3[nH]2)c(SSc2cc(Cl)c(C(=O)Nc3ccccc3)cc2S(=O)(=O)Nc2nc3ncccc3[nH]2)cc1Cl [Compound 1] | 1.75

Each compound was assayed on NS3/4A R155K (assay: not given). Conditions: fold change in IC50 for the mutant compared to WT.
Type: biochemical, HCV genotype 1b, strain HC-J4
Text: as §1, §2, §3

Row | Structure (SMILES) | NS3/4A R155K FC
21 | Clc1ccc(OCc2nn3c(CCc4nnc5sc(COc6ccc(Cl)cc6)nn45)nnc3s2)cc1 [Compound 2] | 19.5
22 | S=c1[nH]nc(Nc2nc(SCc3ccccc3)nc3n[nH]c(Cc4nn[nH]n4)c23)s1 [Compound 6] | 2.4
23 | S=c1[nH]n2c(COc3cc(Cl)c(OCc4nnc5sc(=S)[nH]n45)cc3Cl)nnc2s1 [Compound 7] | 1.6
24 | O=C(Nc1ccccc1)c1cc(S(=O)(=O)Nc2nc3ncccc3[nH]2)c(SSc2cc(Cl)c(C(=O)Nc3ccccc3)cc2S(=O)(=O)Nc2nc3ncccc3[nH]2)cc1Cl [Compound 1] | 9.6

The compounds below were run against WNV NS2B-NS3 proteinase (assay: WNV NS2B-NS3 proteinase activity assay (cross-reactivity)). Conditions: pyroglutamic acid-Arg-Thr-Lys-Arg-7-amino-4-methylcoumarin substrate.
Type: biochemical, West Nile virus (strain NY99)
Text: Reagents were purchased from Sigma unless indicated otherwise. The FRET substrate Ac-DE-D(Edans)-EE-Abu-ψ-[COO]-AS-K(Dabsyl)-NH2, purified recombinant wild-type NS3/4A from HCV genotype 1b, strain HC-J4, and the mutants with the V36M, R155K, A156T, D168A and V170A resistance mutations were from AnaSpec (Fremont, CA). The NS3/4A construct represented the individual NS3 proteinase domain N-terminally fused with an NS4A co-factor and tagged with a 6xHis tag. NS3/4A was in active form and the pre-activation by pep-4A or pep4AK was not necessary. Pyroglutamic acid-Arg-Thr-Lys-Arg-7-amino-4-methylcoumarin was from Peptides International (Louisville, KY). West Nile virus NS2B-NS3 proteinase (strain NY99) was expressed, purified and refolded to restore its functional activity as described earlier. The pET15b-Den2-CF40-Gly-NS3pro 185 plasmid encoding the Dengue virus type 2 NS2B-NS3 protease was a kind gift of Dr. Subhash Vasudevan (Program in Emerging Infectious Diseases, DUKE-NUS Graduate Medical School, Singapore). DV NS2B-NS3 proteinase was expressed purified and refolded to restore its functional activity as described previously, [70]. The expression of the soluble C-terminally truncated human furin construct in Sf9 insect cells (an ovarian cell line from fall armyworm Spodoptera frugiperda; Invitrogen, Carlsbad, CA) infected with the recombinant baculovirus and purification of soluble furin from the medium were described earlier. Original human hepatocarcinoma Huh7 cells were obtained from ATCC (Manassas, VA).
The activity of furin and both WNV and DV2 NS2B-NS3 proteinases (10 nM each) was measured in triplicate in 0.2 ml 20 mM Tris-HCl buffer, pH 8.0, containing 20% glycerol and 0.005% Brij 35 (for furin – 100 mM HEPES, pH 7.5, containing 1 mM CaCl2, 1 mM β-mercaptoethanol and 0.005% Brij 35) and pyroglutamic acid-Arg-Thr-Lys-Arg-7-amino-4-methylcoumarin (10 µM) as a substrate (λex = 360 nm; λem = 465 nm) as described earlier.
as §3

Row | Structure (SMILES) | IC50 [µM]
25 | Clc1ccc(OCc2nn3c(CCc4nnc5sc(COc6ccc(Cl)cc6)nn45)nnc3s2)cc1 [Compound 2] | > 100
26 | S=c1[nH]nc(Nc2nc(SCc3ccccc3)nc3n[nH]c(Cc4nn[nH]n4)c23)s1 [Compound 6] | 12.7
27 | S=c1[nH]n2c(COc3cc(Cl)c(OCc4nnc5sc(=S)[nH]n45)cc3Cl)nnc2s1 [Compound 7] | 39.1
28 | O=C(Nc1ccccc1)c1cc(S(=O)(=O)Nc2nc3ncccc3[nH]2)c(SSc2cc(Cl)c(C(=O)Nc3ccccc3)cc2S(=O)(=O)Nc2nc3ncccc3[nH]2)cc1Cl [Compound 1] | 21.9
